From article PMC11714206, “Massively Parallel Screening of Toll/Interleukin‐1 Receptor (TIR)‐Derived Peptides Reveals Multiple Toll‐Like Receptors (TLRs)‐Targeting Immunomodulatory Peptides” (Advanced Science, 2024)
Where “and” joins values, the source holds several entries; their conditions need not be identical. Identical values can stand only once.

Assays:
[1] = molecular target: T1, MAL^TIR (Homo sapiens, UniProt P58753); test: T‐Surf phage library (P8 and P3) selection against MAL^TIR, four rounds, NGS read counts; assay type: binding; settings: for Population: P8_MAL pool: P8 T-Surf phage library, 4th round of selection against MAL TIR, share of NGS reads; for Rank (after): P8_MAL: rank by count after grouping; for Rank (before): P8_MAL: rank by count before grouping; for P3_MAL Rank (after) / P3_MAL Rank (before): P3 library; for P8_MAL Rank (after) / P8_MAL Rank (before): P8 library
T1 construct: MAL (residues 79–221); 6xHis; made in house; host or cells: E. coli BL21 (DE3)
Experimental: T‐Surf libraries were screened against the immobilized TIR domains of two major human TLR adaptor proteins, MAL^TIR and MyD88^TIR, allowing cross‐species selection of TIR‐binding motifs with 190 946 TIR‐derived peptides in a single binding assay (Scheme 1). Enriched phage pools from the fourth round of selection were analyzed using NGS after barcoding the peptide‐coding regions of the phage pools.
Phage display screening was performed by coating two wells of a 96‐well plate (Maxisorp, Thermo Fisher Scientific) with 100 µL of 5 µg mL^−1 TIR domains overnight; then, the coated wells were blocked with 200 µL of blocking buffer (0.2% BSA in PBS) and set aside for 1 h at 4 °C with gentle shaking. Next, 100 µL of the phage library was added to the wells and incubated for 1 h at room temperature (RT; 20 – 22 °C) with gentle shaking. The plate was washed four times with PBS containing 0.5% Tween‐20; the bound phages were eluted by adding 100 µL of 100 mM HCl to each well. The elute was neutralized with 10 µL of 1.0 M Tris‐HCl (pH 11.0). E. coli TG1 cells were grown to the log phase (A600 = ≈0.6), and 1 mL of the culture was incubated with 100 µL of the eluted phages for 30 min at 37 °C, with shaking at 200 rpm. Next, 1 µL of M13KO7 helper phages was added, followed by incubation for 45 min at 37 °C, with shaking. Subsequently, the cells were transferred to 25 mL of 2× yeast extract tryptone/carbenicillin/kanamycin medium and incubated overnight at 37 °C with shaking at 200 rpm. The amplified phages were precipitated with 20% PEG‐8000/2.5 M NaCl to be used for the next round of selection.
The naïve T‐Surf libraries in P8 and P3 and the enriched phage pools after four rounds were barcoded for NGS as previously described.^[ [59] ^] Briefly, 5 µL of the phage pool was used as a template for 20 cycles of a 50 µL PCR reaction using […] each of forward and reverse barcoded primers and PrimeSTAR Max DNA Polymerase. The PCR products were purified using Expin Gel SV (GeneAll). The NGS samples were quantified using qPCR, following the qPCR Quantification Protocol Guide (KAPA Library Quantification kits for Illumina Sequencing Platform), and qualified using the TapeStation High Sensitivity D1000 ScreenTape (Agilent Technologies). The indexed libraries were further sequenced by Macrogen (Seoul, Republic of Korea) using the NovaSeq platform (Illumina) with 100 bp paired‐end reads. The reads were demultiplexed by barcodes and filtered for an average Phred quality score of at least 30, followed by trimming the flanking consensus sequences using Cutadapt (version 2.3). Peptide sequence populations were analyzed according to the read counts.

[2] = molecular target: T2, MyD88^TIR (Homo sapiens, UniProt Q99836); test: T‐Surf phage library (P8 and P3) selection against MyD88^TIR, four rounds, NGS read counts; assay type: binding; settings: for P3_MyD88 Rank (after) / P3_MyD88 Rank (before): P3 library
T2 construct: MyD88 (residues 148–296); 6xHis; made in house; host or cells: E. coli BL21 (DE3)
How it was run: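 Read counts come from NGS of phage pools after the fourth selection round, barcoded by 20-cycle PCR and filtered for quality ≥30. Each round: phage incubated 1 h at RT on immobilised TIR protein (5 µg mL^−1, BSA-blocked), washed, HCl-eluted and amplified in E. coli TG1.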

[3] = selection against MAL, rank after grouping
[4] = selection against MAL, rank before grouping
[5] = selection against MAL TIR, rank by count after grouping
[6] = selection against MAL TIR, rank by count before grouping
[7] = 4R selection against MAL, rank after grouping
[8] = 4R selection against MAL, rank before grouping
[9] = selection against MAL, rank by count after grouping
[10] = selection against MAL, rank by count before grouping
[11] = selection against MyD88 TIR, rank by count after grouping
[12] = selection against MyD88 TIR, rank by count before grouping

T2 sequence (Q99836 148-296): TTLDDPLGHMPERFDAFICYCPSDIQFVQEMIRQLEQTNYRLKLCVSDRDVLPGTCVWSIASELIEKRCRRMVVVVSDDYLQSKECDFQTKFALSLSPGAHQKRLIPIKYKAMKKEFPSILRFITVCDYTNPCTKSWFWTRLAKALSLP
T1 sequence (P58753 79-221): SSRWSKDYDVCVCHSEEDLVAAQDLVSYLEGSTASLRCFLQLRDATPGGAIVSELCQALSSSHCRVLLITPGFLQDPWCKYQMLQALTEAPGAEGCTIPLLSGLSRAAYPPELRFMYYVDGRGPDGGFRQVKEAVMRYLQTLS

*FYERLVSLILRDTKV
Population [1]: 0.00402% and 0.00278%

ACFWEQRPTVLGKPPM
Rank (after) [1]: 417
Rank (before) [1]: 1934

AFCIRRLRVKALRFS
P3_MAL Rank (after) [1, 3]: 569
P3_MAL Rank (before) [1, 4]: 1783

AFCWAQLKSVLGNPTR
Rank (after) [1]: 123
Rank (before) [1]: 1781

AFFCAHLRTVLGKPTM
P8_MAL Rank (after) [1, 5]: 267
P8_MAL Rank (before) [1, 6]: 1586

AFFCAQLKRVLGNPTM
Rank (after) [1]: 102
Rank (before) [1]: 1724

AFFCAQLKSVLGNPTM
Population [1]: 0.00309%

AFFCAQLKSVMGNPTI
P8_MAL Rank (after) [1, 7]: 675
P8_MAL Rank (before) [1, 8]: 1585

AFFCAQQKSVLRNPTK
P8_MAL Rank (after) [1, 3]: 516
P8_MAL Rank (before) [1, 4]: 1725

AFFCEQLRTVIGKPTI
Rank (after) [1]: 414
Rank (before) [1]: 1587

AFFCTHLKSVLDNPTM
P8_MAL Rank (after) [1, 7]: 623
P8_MAL Rank (before) [1, 8]: 1589

AFFCTQLKSVLGNPTI
P8_MAL Rank (after) [1, 7]: 587
P8_MAL Rank (before) [1, 8]: 1588

AFFCTQLLNVLRKPTI
P8_MAL Rank (after) [1, 7]: 655
P8_MAL Rank (before) [1, 8]: 1590

AFFGAQLKSVLGNPPM
P8_MAL Rank (after) [1, 5]: 210
P8_MAL Rank (before) [1, 6]: 1740

AFFGAQLKSVLGNPTM
Population [1]: 0.0034%

AFFGAQLKSVLRNPTM
P8_MAL Rank (after) [1, 5]: 191
P8_MAL Rank (before) [1, 6]: 1739

AFFGEQLVTGLAKRSS
P8_MAL Rank (after) [1, 3]: 568
P8_MAL Rank (before) [1, 4]: 1742

AFFGEQVSPVLGKPTM
Rank (after) [1]: 426
Rank (before) [1]: 1748

AFFLAQLKSEPTNPTM
P8_MAL Rank (after) [1, 5]: 272
P8_MAL Rank (before) [1, 6]: 1581

AFFLAQLKSVLGKPTM
P8_MAL Rank (after) [1, 3]: 533
P8_MAL Rank (before) [1, 4]: 1578

AFFLAQLKSVLGNPTT
P8_MAL Rank (after) [1, 7]: 670
P8_MAL Rank (before) [1, 8]: 1579

AFFLAQLKSVMGNPTM
P8_MAL Rank (after) [1, 7]: 645
P8_MAL Rank (before) [1, 8]: 1580

AFFLGAAEKRAGQSDDX
Population [1]: 0.00371%

AFFLGTAAYRAGQTDD
P8_MAL Rank (after) [1, 5]: 198
P8_MAL Rank (before) [1, 6]: 802

AFFRDQLRTVLGKPTM
P8_MAL Rank (after) [1, 7]: 609
P8_MAL Rank (before) [1, 8]: 1751

AFFWAHLKSVLGKPTM
P8_MAL Rank (after) [1, 5]: 233
P8_MAL Rank (before) [1, 6]: 1601

AFFWAHLRTVLGKPTI
P8_MAL Rank (after) [1, 3]: 529
P8_MAL Rank (before) [1, 4]: 1657

AFFWAICIMRWCRRAF
P8_MAL Rank (after) [1, 9]: 708
P8_MAL Rank (before) [1, 10]: 1656

AFFWAKLKRVLGNPTL
P8_MAL Rank (after) [1, 3]: 525
P8_MAL Rank (before) [1, 4]: 1652

AFFWAQLKNVLGNPTM
Population [1]: 0.00278%

AFFWAQLKNVLGSPTI
P8_MAL Rank (after) [1, 9]: 718
P8_MAL Rank (before) [1, 10]: 1642

AFFWAQLKQLLRSDGR
P8_MAL Rank (after) [1, 7]: 629
P8_MAL Rank (before) [1, 8]: 1610

AFFWAQLKRAGQSDD
P8_MAL Rank (after) [1, 5]: 257
P8_MAL Rank (before) [1, 6]: 1607

AFFWAQLKSELGNPSM
P8_MAL Rank (after) [1, 3]: 515
P8_MAL Rank (before) [1, 4]: 1644

AFFWAQLKSELGNPTM
Population [1]: 0.00463%

AFFWAQLKSGLGNPTK
Rank (after) [1]: 186
Rank (before) [1]: 1639

AFFWAQLKSTLGETSF
P8_MAL Rank (after) [1, 3]: 567
P8_MAL Rank (before) [1, 4]: 1640

AFFWAQLKSVLGNLTK
Rank (after) [1]: 399
Rank (before) [1]: 1623

AFFWAQLKSVLGNPAR
P8_MAL Rank (after) [1, 7]: 605
P8_MAL Rank (before) [1, 8]: 1630

AFFWAQLKSVLGNPPV
Rank (after) [1]: 424
Rank (before) [1]: 1661

AFFWAQLKSVLGNPTL
Population [1]: 0.00309%

AFFWAQLKSVLGNPTM
Population [1]: 0.00371% and 0.00278%

AFFWAQLKSVLGNRTM
Population [1]: 0.00309%

AFFWAQLKSVLQSDD
P8_MAL Rank (after) [1, 9]: 679
P8_MAL Rank (before) [1, 10]: 1635

AFFWAQLKSVLRTQTM
P8_MAL Rank (after) [1, 9]: 696
P8_MAL Rank (before) [1, 10]: 1633

AFFWAQLNSVLGNTTM
P8_MAL Rank (after) [1, 9]: 710
P8_MAL Rank (before) [1, 10]: 1608

AFFWAQLQSMLGNPTM
Rank (after) [1]: 138
Rank (before) [1]: 1605

AFFWAQPKSVLGNPTV
Rank (after) [1]: 103
Rank (before) [1]: 1645

AFFWAQQKSVLGDPTM
P8_MAL Rank (after) [1, 9]: 722
P8_MAL Rank (before) [1, 10]: 1646

AFFWAQVKSVLGNTTM
P8_MAL Rank (after) [1, 5]: 264
P8_MAL Rank (before) [1, 6]: 1603

AFFWARLQSVLGNPTM
P8_MAL Rank (after) [1, 5]: 243
P8_MAL Rank (before) [1, 6]: 1654

AFFWDSCVPCWANRR
P8_MAL Rank (after) [1, 5]: 258
P8_MAL Rank (before) [1, 6]: 1666

AFFWEHLRPLLGKQAM
P8_MAL Rank (after) [1, 7]: 622
P8_MAL Rank (before) [1, 8]: 1711

AFFWEKLRTVLGRPTM
Rank (after) [1]: 477
Rank (before) [1]: 1713

AFFWEQLKSVLGNPTM
Population [1]: 0.00371%

AFFWEQLRPALKERLP
P3_MAL Rank (after) [1, 9]: 746
P3_MAL Rank (before) [1, 10]: 1787

AFFWEQLRTALGNPTM
P8_MAL Rank (after) [1, 9]: 704
P8_MAL Rank (before) [1, 10]: 1698

AFFWEQLRTLLGQPTM
Rank (after) [1]: 127
Rank (before) [1]: 1699

AFFWEQLRTLLSKPTM
Rank (after) [1]: 433
Rank (before) [1]: 1673

AFFWEQLRTVLDHVNDV
Rank (after) [1]: 141
Rank (before) [1]: 836

YYLDPSHLRKQSGW
P3_MyD88 Rank (after) ([2]; selection against MyD88, rank by count after grouping): 720
P3_MyD88 Rank (before) ([2]; selection against MyD88, rank by count before grouping): 1453

YYLDPSHLRKQSVEFS
Rank (after) ([2]; P3_MyD88: rank by count after grouping): 473
Rank (before) ([2]; P3_MyD88: rank by count before grouping): 1451

YYLDPSHLRKQTGSLAKAFA
P3_MyD88 Rank (after) [2, 11]: 224
P3_MyD88 Rank (before) [2, 12]: 1463

YYLDTSHHRKQSGEFG
P3_MyD88 Rank (after) [2, 11]: 246
P3_MyD88 Rank (before) [2, 12]: 1438

YYLEPIYLRKQSGDFG
P3_MyD88 Rank (after) [2, 11]: 283
P3_MyD88 Rank (before) [2, 12]: 1475
